Measured values: US20240287124A1, “PRODRUGS OF 4'-SUBSTITUTED NUCLEOSIDE REVERSE TRANSCRIPTASE INHIBITORS” (Merck Sharp & Dohme LLC, priority 2023, published 2024)
Converted amounts (≈) assume the structure as drawn. Read-outs that look alike come from different tables or passages of the source.

How the values were obtained:
[1] = system: HIV-1 wild-type (R8) virus; assay: Viral KINetics in Green cells (VIKING) assay, HIV-1 replication in MT4-GFP reporter cells; type: cell-based
Method in brief: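 MT4-GFP cells infected overnight with HIV-1 R8 at MOI ~0.01, then added to compound plates in RPMI with 10% normal human serum; 10-point 3-fold dilutions (typically 4 μM-0.2 nM). Green cells counted at ~48 h and 72 h; reproductive ratio (72 h/48 h) gave % inhibition, IC50 by 4-parameter fit.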

[2] = Aqueous solubility in PBS, pH 7.4; type: physicochemical; settings: for solubility at 24 h: phosphate buffered saline, pH 7.4, aqueous buffer, thermodynamic from solid, pH 7.4 phosphate buffered saline, amorphous or crystalline material, read-out: Aqu. Solubility
Method in brief: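 Excess solid suspended at 0.5 mg/mL in PBS pH 7.4 and stirred 24 hours. Filtrate (0.45 μm) diluted 1:1 with ACN:H2O and quantified by UPLC against a standard curve; residual solid phase checked by XRPD and PLM.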

[3] = Human immunodeficiency virus 1, 10% normal human serum, MT4-GFP cells, HIV-1 wild-type (R8), read-out: Viking (10% NHS), IC50

| Structure (SMILES) | solubility at 24 h [2] | IC50 ([1]; Human immunodeficiency virus 1, parent compound, read-out: IC50 in the Viking assay) | solubility ([2]; water, in water) | IC50 [1, 3] |
| --- | --- | --- | --- | --- |
| C#C[C@]1(CO)O[C@@H](n2ccc3c(N)nc(Cl)nc32)C[C@@H]1OC(=O)CCCCCC [Example 58, (2R,3S,5R)-5-(4-amino-2-chloro-7H-pyrrolo[2,3-d]pyrimidin-7-yl)-2-ethynyl-2-(hydroxymethyl)tetrahydrofuran-3-yl heptanoate] | < 1 µg/mL | – | – | 1.9 nM |
| C#C[C@]1(CO)O[C@@H](n2ccc3c(N)nc(Cl)nc32)C[C@@H]1OC(=O)OCCOC(C)=O [Example 156] | 66 µg/mL (≈ 150 µM) | – | – | 3.2 nM |
| C#C[C@]1(CO)O[C@@H](n2ccc3c(NC(=O)c4ccccc4)nc(Cl)nc32)C[C@@H]1O [Example 19, N-(2-chloro-7-((2R,4S,5R)-5-ethynyl-4-hydroxy-5-(hydroxymethyl)tetrahydrofuran-2-yl)-7H-pyrrolo[2,3-d]pyrimidin-4-yl)benzamide] | 34 µg/mL (≈ 82.4 µM) | – | – | 382 nM |
| C#C[C@]1(CO)O[C@@H](n2ccc3c(N)nc(Cl)nc32)C[C@@H]1OC(=O)CCC12CC3CC(CC(C3)C1)C2 [Example 30] | < 1 µg/mL | – | – | 3.6 nM |
| C#C[C@]1(CO)O[C@@H](n2ccc3c(N)nc(Cl)nc32)C[C@@H]1O [Compound A, (2R,3S,5R)-5-(4-amino-2-chloro-7H-pyrrolo[2,3-d]pyrimidin-7-yl)-2-ethynyl-2-(hydroxymethyl)tetrahydrofuran-3-ol, reference compound] | – | 3.3 nM | 500 µg/mL (≈ 1620 µM) | – |
| C#C[C@]1(COC(=O)c2ccccn2)O[C@@H](n2ccc3c(N)nc(Cl)nc32)C[C@@H]1O [Example 50] | 239 µg/mL (≈ 578 µM) | – | – | 1.6 nM |
| C#C[C@]1(COCOC(=O)OC(C)C)O[C@@H](n2ccc3c(N)nc(Cl)nc32)C[C@@H]1O [Example 133] | 341 µg/mL (≈ 803 µM) | – | – | 2.7 nM |
| C#C[C@]1(COC(=O)OC(CC)CC)O[C@@H](n2ccc3c(N)nc(Cl)nc32)C[C@@H]1OC(=O)OC(CC)CC [Example 142] | < 1 µg/mL | – | – | 1760 nM |
| C#C[C@]1(CO)O[C@@H](n2ccc3c(N)nc(Cl)nc32)C[C@@H]1OC(=O)Cc1ccc(Cl)cc1 [Example 32, (2R,3S,5R)-5-(4-amino-2-chloro-7H-pyrrolo[2,3-d]pyrimidin-7-yl)-2-ethynyl-2-(hydroxymethyl)tetrahydrofuran-3-yl 2-(4-chlorophenyl)acetate] | 3.7 µg/mL (≈ 8.02 µM) | – | – | 5.1 nM |
| C#C[C@]1(CO)O[C@@H](n2ccc3c(N)nc(Cl)nc32)C[C@@H]1OC(=O)CCCCC [Example 59, (2R,3S,5R)-5-(4-amino-2-chloro-7H-pyrrolo[2,3-d]pyrimidin-7-yl)-2-ethynyl-2-(hydroxymethyl)tetrahydrofuran-3-yl hexanoate] | 16 µg/mL (≈ 39.3 µM) | – | – | 2.8 nM |
| C#C[C@]1(COC(=O)OCCCCCCCCCC)O[C@@H](n2ccc3c(N)nc(Cl)nc32)C[C@@H]1O [Example 18, ((2R,3S,5R)-5-(4-amino-2-chloro-7H-pyrrolo[2,3-d]pyrimidin-7-yl)-2-ethynyl-3-hydroxytetrahydrofuran-2-yl)methyl decyl carbonate] | 0.45 µg/mL (≈ 0.913 µM) | – | – | 2.1 nM |
| C#C[C@]1(COC(=O)CCCCCCC)O[C@@H](n2ccc3c(N)nc(Cl)nc32)C[C@@H]1O [Example 57, ((2R,3S,5R)-5-(4-amino-2-chloro-7H-pyrrolo[2,3-d]pyrimidin-7-yl)-2-ethynyl-3-hydroxytetrahydrofuran-2-yl)methyl octanoate] | 5 µg/mL (≈ 11.5 µM) | – | – | 2.6 nM |
| C#C[C@]1(COC(=O)CCCC[C@@H]2SC[C@@H]3NC(=O)N[C@@H]32)O[C@@H](n2ccc3c(N)nc(Cl)nc32)C[C@@H]1O [Example 145] | 38 µg/mL (≈ 71 µM) | – | – | 3.2 nM |
| C#C[C@]1(COC(=O)Oc2ccccc2)O[C@@H](n2ccc3c(N)nc(Cl)nc32)C[C@@H]1O [Example 17, ((2R,3S,5R)-5-(4-amino-2-chloro-7H-pyrrolo[2,3-d]pyrimidin-7-yl)-2-ethynyl-3-hydroxytetrahydrofuran-2-yl)methyl phenyl carbonate] | 164 µg/mL (≈ 382 µM) | – | – | 1.4 nM |
| C#C[C@]1(CO)O[C@@H](n2ccc3c(N)nc(Cl)nc32)C[C@@H]1OC(=O)OCC(CC)CC [Example 78] | 2 µg/mL (≈ 4.58 µM) | – | – | 6.7 nM |
| C#C[C@]1(CO)O[C@@H](n2ccc3c(N)nc(Cl)nc32)C[C@@H]1OC(=O)OCCCc1ccccc1 [Example 152] | < 1 µg/mL | – | – | 6 nM |
| C#C[C@]1(COC(=O)CCCC)O[C@@H](n2ccc3c(N)nc(Cl)nc32)C[C@@H]1OC(=O)OCC [Example 146] | 7 µg/mL (≈ 15.1 µM) | – | – | 19 nM |
| C#C[C@]1(CO)O[C@@H](n2ccc3c(N)nc(Cl)nc32)C[C@@H]1OC(=O)OCCCCCCCCC [Example 38, (2R,3S,5R)-5-(4-amino-2-chloro-7H-pyrrolo[2,3-d]pyrimidin-7-yl)-2-ethynyl-2-(hydroxymethyl)tetrahydrofuran-3-yl nonyl carbonate] | < 1 µg/mL | – | – | 8 nM |
| C#C[C@]1(CO)O[C@@H](n2ccc3c(N)nc(Cl)nc32)C[C@@H]1OC(=O)C1CCCCC1 [Example 77] | 14 µg/mL (≈ 33.4 µM) | – | – | 5 nM |
| C#C[C@]1(CO)O[C@@H](n2ccc3c(N)nc(Cl)nc32)C[C@@H]1OC(=O)CCc1ccccc1 [Example 81] | 2 µg/mL (≈ 4.54 µM) | – | – | 3.3 nM |
| C#C[C@]1(COC(=O)OC(CC)CC)O[C@@H](n2ccc3c(N)nc(Cl)nc32)C[C@@H]1O [Example 86] | 145 µg/mL (≈ 343 µM) | – | – | 13 nM |

Now from value to compound, other results behind:

| solubility at 24 h [2] | IC50 ([1]; Human immunodeficiency virus 1, parent compound, read-out: IC50 in the Viking assay) | solubility ([2]; water, in water) | Structure (SMILES) | IC50 [1, 3] |
| --- | --- | --- | --- | --- |
| < 1 µg/mL | – | – | C#C[C@]1(COC(=O)OCc2ccccc2)O[C@@H](n2ccc3c(N)nc(Cl)nc32)C[C@@H]1OC(=O)CCCCC [Example 210] | 2.9 nM |
| 4.2 µg/mL (≈ 9.36 µM) | – | – | C#C[C@]1(COC(=O)CCCCC)O[C@@H](n2ccc3c(N)nc(Cl)nc32)C[C@@H]1OC(C)=O [Example 185] | 17 nM |
| < 1 µg/mL | – | – | C#C[C@]1(COC(=O)OCc2ccccc2)O[C@@H](n2ccc3c(N)nc(Cl)nc32)C[C@@H]1OC(=O)OCc1cccnc1 [Example 174] | 13 nM |
| < 1 µg/mL | – | – | C#C[C@]1(CO)O[C@@H](n2ccc3c(N)nc(Cl)nc32)C[C@@H]1OC(=O)Cc1ccc(Br)cc1 [Example 181] | 4 nM |
| 70 µg/mL (≈ 115 µM) | – | – | C#C[C@]1(COC(=O)OCc2cc[nH]c(=O)c2)O[C@@H](n2ccc3c(N)nc(Cl)nc32)C[C@@H]1OC(=O)OCc1cc[nH]c(=O)c1 [Example 225] | 13 nM |
| 2.3 µg/mL (≈ 4.48 µM) | – | – | C#C[C@]1(COC(=O)OCc2ccccc2)O[C@@H](n2ccc3c(N)nc(Cl)nc32)C[C@@H]1OC(=O)CCC [Example 194] | 17 nM |
| 161 µg/mL (≈ 301 µM) | – | – | C#C[C@]1(CO)O[C@@H](n2ccc3c(N)nc(Cl)nc32)C[C@@H]1OC(=O)CCCC[C@@H]1SC[C@@H]2NC(=O)N[C@@H]21 [Example 184] | 57 nM |
| 19 µg/mL (≈ 29.7 µM) | – | – | C#C[C@]1(COC(=O)OCc2ccn(C)c(=O)c2)O[C@@H](n2ccc3c(N)nc(Cl)nc32)C[C@@H]1OC(=O)OCc1ccn(C)c(=O)c1 [Example 226] | 13 nM |
| < 1 µg/mL | – | – | C#C[C@]1(COC(=O)Cc2ccc(Br)cc2)O[C@@H](n2ccc3c(N)nc(Cl)nc32)C[C@@H]1OC(=O)Cc1ccc(Br)cc1 [Example 227] | 12 nM |
